Assay results taken from PubChem BioAssay (NCI).
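GI50: concentration for 50% inhibition of growth. TGI is the concentration that stops growth completely.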

Key:
Test in all cases: DTP human tumour cell line panel, 384-well format
786-0 renal = test system: 786-0 renal
A498 renal = test system: A498 renal
BT-549 breast = test system: BT-549 breast
CCRF-CEM leukemia = test system: CCRF-CEM leukemia
COLO 205 colon = test system: COLO 205 colon
HCC-2998 colon = test system: HCC-2998 colon
HCT-15 colon = test system: HCT-15 colon
HL-60(TB) leukemia = test system: HL-60(TB) leukemia
HOP-62 NSCLC = test system: HOP-62 NSCLC
HT29 colon = test system: HT29 colon
IGROV1 ovarian = test system: IGROV1 ovarian
KM12 colon = test system: KM12 colon
LOX IMVI melanoma = test system: LOX IMVI melanoma
M14 melanoma = test system: M14 melanoma
MALME-3M melanoma = test system: MALME-3M melanoma
MDA-MB-231 breast = test system: MDA-MB-231 breast
MDA-MB-435 melanoma = test system: MDA-MB-435 melanoma
MDA-MB-468 breast = test system: MDA-MB-468 breast
MOLT-4 leukemia = test system: MOLT-4 leukemia
NCI-H226 lung = test system: NCI-H226 lung
NCI-H23 lung = test system: NCI-H23 lung
NCI-H322M lung = test system: NCI-H322M lung
NCI-H460 NSCLC = test system: NCI-H460 NSCLC
NCI-H522 lung = test system: NCI-H522 lung
NCI/ADR-RES ovarian = test system: NCI/ADR-RES ovarian
OVCAR-3 ovarian = test system: OVCAR-3 ovarian
OVCAR-4 ovarian = test system: OVCAR-4 ovarian
OVCAR-8 ovarian = test system: OVCAR-8 ovarian
RPMI-8226 leukemia = test system: RPMI-8226 leukemia
RXF 393 renal = test system: RXF 393 renal
SF-268 CNS = test system: SF-268 CNS
SF-295 CNS = test system: SF-295 CNS
SF-539 CNS = test system: SF-539 CNS
SK-MEL-2 melanoma = test system: SK-MEL-2 melanoma
SK-MEL-28 melanoma = test system: SK-MEL-28 melanoma
SK-MEL-5 melanoma = test system: SK-MEL-5 melanoma
SK-OV-3 ovarian = test system: SK-OV-3 ovarian
SN12C renal = test system: SN12C renal
SNB-19 CNS = test system: SNB-19 CNS
SR leukemia = test system: SR leukemia
TK-10 renal = test system: TK-10 renal
U251 glioblastoma = test system: U251 glioblastoma
UACC-257 melanoma = test system: UACC-257 melanoma
UACC-62 melanoma = test system: UACC-62 melanoma
UO-31 renal = test system: UO-31 renal

`COc1ncnn2ccc(-c3cnc4nc(C)n(Cc5nnc(C(C)F)o5)c4c3)c12` (stereo not given) showed a GI50 (786-0 renal) of 116 nM, a TGI (786-0 renal) of 252 nM and a GI50 (A498 renal) of 42.6 nM. It also gave a TGI (A498 renal) of 187 nM, a GI50 (BT-549 breast) of 16.9 nM and a TGI (BT-549 breast) of 49.9 nM. For the same molecule, the GI50 (CCRF-CEM leukemia) was 21.1 nM, the TGI (CCRF-CEM leukemia) was 41.9 nM and the GI50 (COLO 205 colon) was 26.8 nM. For the same molecule, the TGI (COLO 205 colon) was 67.5 nM, the GI50 (HCC-2998 colon) was 41.1 nM and the TGI (HCC-2998 colon) was 196 nM. For the same molecule, the GI50 (HCT-15 colon) was 33 nM, the TGI (HCT-15 colon) was 147 nM and the GI50 (HL-60(TB) leukemia) was 51.5 nM. It also gave a TGI (HL-60(TB) leukemia) of 156 nM, a GI50 (HOP-62 NSCLC) of 27.5 nM and a TGI (HOP-62 NSCLC) of 122 nM. It also gave a GI50 (HT29 colon) of 142 nM, a TGI (HT29 colon) of 284 nM and a GI50 (IGROV1 ovarian) of 26.5 nM. The TGI (IGROV1 ovarian) was 135 nM, the GI50 (KM12 colon) was 24.8 nM and the TGI (KM12 colon) was 95.5 nM. For the same molecule, the GI50 (LOX IMVI melanoma) was 58.3 nM, the TGI (LOX IMVI melanoma) was 161 nM and the GI50 (M14 melanoma) was 185 nM. It also gave a TGI (M14 melanoma) of 334 nM, a GI50 (MALME-3M melanoma) of 95.6 nM and a TGI (MALME-3M melanoma) of 223 nM. It also gave a GI50 (MDA-MB-231 breast) of 77.9 nM, a TGI (MDA-MB-231 breast) of 415 nM and a GI50 (MDA-MB-435 melanoma) of 67.3 nM. It also gave a TGI (MDA-MB-435 melanoma) of 236 nM, a GI50 (MDA-MB-468 breast) of 17.6 nM and a TGI (MDA-MB-468 breast) of 43.4 nM. The GI50 (MOLT-4 leukemia) was 18.5 nM, the TGI (MOLT-4 leukemia) was 33.4 nM and the GI50 (NCI-H226 lung) was 117 nM. For the same molecule, the TGI (NCI-H226 lung) was 283 nM, the GI50 (NCI-H23 lung) was 19.7 nM and the TGI (NCI-H23 lung) was 46.9 nM. The GI50 (NCI-H322M lung) was 82.2 nM, the TGI (NCI-H322M lung) was 815 nM and the GI50 (NCI-H460 NSCLC) was 42.6 nM. The TGI (NCI-H460 NSCLC) was 163 nM, the GI50 (NCI-H522 lung) was 14.8 nM and the TGI (NCI-H522 lung) was 52 nM. The GI50 (NCI/ADR-RES ovarian) was 154 nM, the TGI (NCI/ADR-RES ovarian) was 415 nM and the GI50 (OVCAR-3 ovarian) was 17.2 nM. The TGI (OVCAR-3 ovarian) was 41.4 nM, the GI50 (OVCAR-4 ovarian) was 57.2 nM and the TGI (OVCAR-4 ovarian) was 215 nM. For the same molecule, the GI50 (OVCAR-8 ovarian) was 40.2 nM, the TGI (OVCAR-8 ovarian) was 256 nM and the GI50 (RPMI-8226 leukemia) was 40.5 nM. It also gave a TGI (RPMI-8226 leukemia) of 95.8 nM, a GI50 (RXF 393 renal) of 56 nM and a TGI (RXF 393 renal) of 188 nM. For the same molecule, the GI50 (SF-268 CNS) was 133 nM, the TGI (SF-268 CNS) was 400 nM and the GI50 (SF-295 CNS) was 110 nM. For the same molecule, the TGI (SF-295 CNS) was 307 nM, the GI50 (SF-539 CNS) was 126 nM and the TGI (SF-539 CNS) was 286 nM. The GI50 (SK-MEL-2 melanoma) was 29.4 nM, the TGI (SK-MEL-2 melanoma) was 77.2 nM and the GI50 (SK-MEL-28 melanoma) was 51.9 nM. It also gave a TGI (SK-MEL-28 melanoma) of 184 nM, a GI50 (SK-MEL-5 melanoma) of 15.4 nM and a TGI (SK-MEL-5 melanoma) of 45 nM. It also gave a GI50 (SK-OV-3 ovarian) of 28.7 nM, a TGI (SK-OV-3 ovarian) of 132 nM and a GI50 (SN12C renal) of 43.5 nM. For the same molecule, the TGI (SN12C renal) was 215 nM, the GI50 (SNB-19 CNS) was 37.1 nM and the TGI (SNB-19 CNS) was > 100000 nM. It also gave a GI50 (SR leukemia) of 15.5 nM, a TGI (SR leukemia) of 29.4 nM and a GI50 (TK-10 renal) of 44.7 nM. The TGI (TK-10 renal) was 261 nM, the GI50 (U251 glioblastoma) was 43.2 nM and the TGI (U251 glioblastoma) was 338 nM. It also gave a GI50 (UACC-257 melanoma) of 20.1 nM, a TGI (UACC-257 melanoma) of 56.6 nM and a GI50 (UACC-62 melanoma) of 24.9 nM. The TGI (UACC-62 melanoma) was 80.7 nM, the GI50 (UO-31 renal) was 103 nM and the TGI (UO-31 renal) was 270 nM.
